Source: PubChem BioAssay AID1259407 (Chemical Carcinogenesis Research Information System (CCRIS), 2018)
Activity calls are given as the source filed them. How the calls were made is not given here.

System: CCRIS mutagenicity, Ames/micronucleus/aberration tests
Assay: CCRIS mutagenicity studies

Nc1cccc(N)c1
mutagenic call (Test System: AMES SALMONELLA TYPHIMURIUM, Strain/Indicator: TA100, Metabolic Activation: S-9, Method: PREINCUBATION): active; positive | mutagenic call (Test System: AMES SALMONELLA TYPHIMURIUM, Strain/Indicator: TA1535, Metabolic Activation: HAMSTER, LIVER, S-9, AROCLOR 1254 (10%), Method: PREINCUBATION): inactive; negative | mutagenic call (Test System: AMES SALMONELLA TYPHIMURIUM, Strain/Indicator: TA1535, Metabolic Activation: HAMSTER, LIVER, S-9, AROCLOR 1254 (30%), Method: PREINCUBATION): active; positive | mutagenic call (Test System: AMES SALMONELLA TYPHIMURIUM, Strain/Indicator: TA1535, Metabolic Activation: NONE, Method: PREINCUBATION): inactive; negative | mutagenic call (Test System: AMES SALMONELLA TYPHIMURIUM, Strain/Indicator: TA1535, Metabolic Activation: RAT, LIVER, S-9, AROCLOR 1254 (5%), Method: PREINCUBATION): active; positive | mutagenic call (Test System: AMES SALMONELLA TYPHIMURIUM, Strain/Indicator: TA1535, Metabolic Activation: RAT, LIVER, S-9, AROCLOR 1254 (30%), Method: PREINCUBATION): inactive; negative | mutagenic call (Test System: AMES SALMONELLA TYPHIMURIUM, Strain/Indicator: TA1537, Metabolic Activation: RAT, LIVER, S-9, AROCLOR 1254 (4 OR 10%), Method: STANDARD PLATE): active; positive | mutagenic call (Test System: AMES SALMONELLA TYPHIMURIUM, Strain/Indicator: TA1538, Metabolic Activation: RAT, LIVER, S-9, AROCLOR 1254 (4 OR 10%), Method: STANDARD PLATE): active; positive | mutagenic call (Test System: AMES SALMONELLA TYPHIMURIUM, Strain/Indicator: TA1538, Metabolic Activation: RAT, LIVER, S-9, PHENOBARBITAL, Method: STANDARD PLATE): active; positive | mutagenic call (Test System: AMES SALMONELLA TYPHIMURIUM, Strain/Indicator: YG1021, Metabolic Activation: RAT, LIVER, S-9, PHENOBARBITAL AND 5,6-BENZOFLAVONE, Method: PREINCUBATION): active; positive | mutagenic call (Test System: AMES SALMONELLA TYPHIMURIUM, Strain/Indicator: YG1024, Metabolic Activation: CELL-FREE PLANT MIXTURE TX1MX, Method: PREINCUBATION): active; positive | mutagenic call (Test System: AMES SALMONELLA TYPHIMURIUM, Strain/Indicator: YG1024, Metabolic Activation: NONE, Method: PREINCUBATION): inactive; negative | mutagenic call (Test System: AMES SALMONELLA TYPHIMURIUM, Strain/Indicator: YG1024, Metabolic Activation: NONE, Method: STANDARD PLATE): inactive; negative | mutagenic call (Test System: AMES SALMONELLA TYPHIMURIUM, Strain/Indicator: YG1024, Metabolic Activation: PLANT (PERSEA AMERICANA) S-117, Method: STANDARD PLATE): active; positive | mutagenic call (Test System: AMES SALMONELLA TYPHIMURIUM, Strain/Indicator: YG1024, Metabolic Activation: PLANT (ZEA MAYS) S-9, Method: STANDARD PLATE): active; positive | mutagenic call (Test System: AMES SALMONELLA TYPHIMURIUM, Strain/Indicator: YG1024, Metabolic Activation: RAT LIVER S-9, AROCLOR 1254, Method: STANDARD PLATE): active; positive | mutagenic call (Test System: AMES SALMONELLA TYPHIMURIUM, Strain/Indicator: YG1024, Metabolic Activation: RAT LIVER S-9, Method: STANDARD PLATE): active; positive | mutagenic call (Test System: AMES SALMONELLA TYPHIMURIUM, Strain/Indicator: YG1024, Metabolic Activation: RAT, LIVER, S-9, PHENOBARBITAL AND 5,6-BENZOFLAVONE, Method: PREINCUBATION): active; positive | mutagenic call (Test System: AMES SALMONELLA TYPHIMURIUM, Strain/Indicator: YG1024, Metabolic Activation: TOBACCO, TX1 CELLS, Method: PREINCUBATION): active; positive | mutagenic call (Test System: AMES SALMONELLA TYPHIMURIUM, Strain/Indicator: YG1029, Metabolic Activation: NONE, Method: STANDARD PLATE): inactive; negative | mutagenic call (Test System: AMES SALMONELLA TYPHIMURIUM, Strain/Indicator: YG1029, Metabolic Activation: PLANT (PERSEA AMERICANA) S-117, Method: STANDARD PLATE): inactive; negative | mutagenic call (Test System: AMES SALMONELLA TYPHIMURIUM, Strain/Indicator: YG1041, Metabolic Activation: RAT, LIVER, S-9, PHENOBARBITAL AND 5,6-BENZOFLAVONE, Method: PREINCUBATION): active; positive | mutagenic call (Test System: Ames Salmonella typhimurium, Strain/Indicator: TA98, Metabolic Activation: None, Method: Preincubation): inactive; negative | mutagenic call (Test System: Ames Salmonella typhimurium, Strain/Indicator: TA98, Metabolic Activation: Rat, Liver, S9, Sodium phenobarbital and 5,6-benzoflavone (10%), Method: Preincubation): active; positive | mutagenic call (Test System: Ames Salmonella typhimurium, Strain/Indicator: TA100, Metabolic Activation: None, Method: Preincubation): inactive; negative | mutagenic call (Test System: Ames Salmonella typhimurium, Strain/Indicator: TA100, Metabolic Activation: Rat, Liver, S9, Sodium phenobarbital and 5,6-benzoflavone (10%), Method: Preincubation): inactive; negative | mutagenic call (Test System: Ames Salmonella typhimurium, Strain/Indicator: TA100, Metabolic Activation: Rat, Liver, S9, Sodium phenobarbital and 5,6-benzoflavone, Method: Preincubation): inactive; positive (repeat assay negative) | mutagenic call (Test System: Ames Salmonella typhimurium, Strain/Indicator: TA1535, Metabolic Activation: None, Method: Preincubation): inactive; negative | mutagenic call (Test System: Ames Salmonella typhimurium, Strain/Indicator: TA1535, Metabolic Activation: Rat, Liver, S9, Sodium phenobarbital and 5,6-benzoflavone (10%), Method: Preincubation): inactive; negative | mutagenic call (Test System: Ames Salmonella typhimurium, Strain/Indicator: TA1537, Metabolic Activation: None, Method: Preincubation): inactive; negative | mutagenic call (Test System: Ames Salmonella typhimurium, Strain/Indicator: TA1537, Metabolic Activation: Rat, Liver, S9, Sodium phenobarbital and 5,6-benzoflavone (10%), Method: Preincubation): active; positive | mutagenic call (Test System: E. coli, Strain/Indicator: WP2uvrA/pKM101, Metabolic Activation: None, Method: Preincubation): inactive; negative | mutagenic call (Test System: E. coli, Strain/Indicator: WP2uvrA/pKM101, Metabolic Activation: Rat, Liver, S9, Sodium phenobarbital and 5,6-benzoflavone (10%), Method: Preincubation): inactive; negative | mutagenic call (Test System: UDS RODENT HEPATOCYTES, Strain/Indicator: THY INCORP (NON-S-PHASE), Metabolic Activation: NONE, Method: AUTORADIOGRAPHY): inactive; negative
